How the values were obtained:
Format in all cases: in vivo
[1] = system: MCAO rat model of ischemic stroke; experiment: Stepping test (forelimb akinesia) after tMCAO; conditions: Example 2; for stepping test performance vs vehicle control: all experimental conditions (s.c. daily injection or Alzet pump, 28 days), by Day 21 post-surgery
Description: (§1) For the purposes of this example, Transient middle cerebral artery occlusion (tMCAO) procedure Day is defined as “Day 1” in this study. On the day of surgery anesthesia were induced with 4% isoflurane in a mixture of 70% N2O and 30% O2 and maintained with 1.5-2% isoflurane.
(§2) The tMCAO procedures were performed according to the method described R. Schmid-Elsaesser et al. Briefly, the right CCA (Common Carotid Artery) was exposed through a midline neck incision and carefully dissected free from surrounding nerves and fascia—from its bifurcation to the base of the skull. The occipital artery branches of the ECA (External Carotid Artery) were then isolated, and these branches were dissected and coagulated. The ECA was dissected further distally and coagulated along with the terminal lingual and maxillary artery branches, which was then divided. The ICA (Internal Carotid Artery) was isolated and carefully separated from the adjacent vagus nerve, and the pterygopalatine artery was ligated close to its origin with a 5-0 nylon suture (SMI, Belgium). Next, a 4-0 silk suture was tied loosely around the mobilized ECA stump, and a 4 cm length of 4-0 monofilament nylon suture (the tip of the suture was blunted by using a flame, and the suture was coated with polylysine, prior to insertion) was inserted through the proximal ECA into the ICA and thence into the circle of Willis, effectively occluding the MCA. The surgical wound was closed and the animals were returned to their cages to recover from anesthesia. One hour and a half after occlusion rats were re-anesthetized, the monofilament was withdrawn to allow reperfusion, the surgical wound was closed and rats were returned to their cages.
(§3) Animals were subjected to a modified Modified Neurological Rating Scale (mNRS) at 24 hours post reperfusion. Only animals with an overall score of ≧10 are included in this study. Animals were allocated into the test groups, according to the mNRS results on day 2, in order to have similar distribution of rats performance between groups. Started on day 2, 24 hours post-surgery, each animal is implanted subcutaneously with osmotic Alzet pump and is treated by continuous PanCyte administration (2.5 mg/ml or 25 mg/ml in PBS; SEQ ID NO:22).
Animals were tested for forelimb akinesia in a stepping test. The animal was held with its hind limbs fixed with one hand and the forelimb not monitored with the other, while the unrestrained fore-paw touches a table. The number of adjusting steps were counted while the animal was moved sideways along the table surface (85 cm in approximately five seconds), in the forehand & backhand direction for both forelimbs. […] Four groups were analyzed in this test, a control group (receiving only PBS for 49 days), a group receiving 50 μg/kg PanCyte for 49 days, a group receiving 500 μg/kg PanCyte for 49 days, and a group receiving 50 μg/kg PanCyte for 14 days.
(§4) Animals were subjected to a modified Modified Neurological Rating Scale (mNRS) at 24 hours post reperfusion. Only animals with an overall score of ≧10 were included in this study. Animals were allocated into the test groups, according to the mNRS results on day 2, in order to have similar distribution of rats performance between groups. Starting on day 2, 24 hours post-surgery, animals in groups 4, 5 and 7 were implanted subcutaneously with an osmotic Alzet pump and treated with either 500 μg/kg TXA127 (SEQ ID NO:1), 500 μg/kg PanCyte (SEQ ID NO:22), or 50 μg/kg Linear PanCyte (SEQ ID NO:6). Animals in groups 2, 3 and 6 received 500 μg/kg or 1,000 μg/kg TXA127 or 500 μg/kg PanCyte, administered subcutaneously via daily injection. Animals in group 1 were treated with a daily subcutaneous injection of a PBS (vehicle).
Animals were tested for forelimb akinesia in a stepping test (ST). The animal was held with its hind limbs fixed with one hand and the forelimb not to be monitored with the other, while the unrestrained fore-paw touches the table. […]

[2] = system: MCAO rat model of ischemic stroke; experiment: Body swing test after tMCAO; conditions: Example 2, 28 days; for body swing test performance level: Day 49
Description: as §1, §2, §3
The rat was held approximately one inch from the base of its tail. It was then elevated to an inch above a surface of a table. The rat was held in the vertical axis, defined as no more than 10° to either the left or the right side. A swing was recorded whenever the rat moved its head out of the vertical axis to either side. Before attempting another swing, the rat had to return to the vertical position for the next swing to be counted. Twenty (20) total swings were counted. A normal rat typically has an equal number of swings to either side. Following focal ischemia, rats tend to swing to the contralateral side (left side in this example). Body swing scores are expressed as a percentage of rightward over total swings. […] Four groups were analyzed in this test, a control group (receiving only PBS for 49 days), a group receiving 50 μg/kg PanCyte for 49 days, a group receiving 500 μg/kg PanCyte for 49 days, and a group receiving 50 μg/kg PanCyte for 14 days.
as §4, with “Animals in group 1 were treated with a daily subcutaneous injection of a PBS (vehicle).” left out

[3] = system: MCAO rat model of ischemic stroke; experiment: Forelimb placement test after tMCAO; conditions: Example 2; 50 μg/kg, s.c. Alzet pump, 28 days; particularly from Day 35 onward
Description: as §1, §2, §3
The limb placing tests were divided into both forelimb and hindlimb tests. For the forelimb-placing test, the examiner held the rat close to a tabletop and scored the rat's ability to place the forelimb on the tabletop in response to whisker, visual, tactile, or proprioceptive stimulation. Similarly, for the hindlimb placing test, the examiner assessed the rat's ability to place the hindlimb on the tabletop in response to tactile and proprioceptive stimulation. […]

[4] = system: MCAO rat model of ischemic stroke; experiment: Overall post-stroke performance in tMCAO rats, Example 2 comparison; conditions: 50 μg/kg Linear PanCyte as compared to 500 μg/kg of PanCyte
Description: The animal model, surgical procedures, and animal care procedures and conditions were as described above for Example 1 unless otherwise specified.
as §4
In addition to the performance benefits discussed above, blood flow and blood vessel diameter was measured using Laser Doppler, according to known protocols, in each non-Alzet group on Day 50.

Substance	stepping test performance vs vehicle control [1]	body swing test performance vs vehicle control ([2]; 500 μg/kg daily s.c. injection, before Day 35)	body swing test performance vs vehicle control ([2]; 500 μg/kg s.c. Alzet pump, Day 21)	body swing test performance vs vehicle control ([2]; 500 μg/kg s.c. Alzet pump, Day 28)	body swing test performance vs vehicle control ([2]; 1,000 μg/kg daily s.c. injection, Day 21)	body swing test performance vs vehicle control ([2]; 1,000 μg/kg daily s.c. injection, Day 28)	body swing test performance level ([2]; TXA 1,000 g/kg group, daily s.c. injection)	body swing test performance level ([2]; TXA Alzet group, 500 μg/kg s.c. Alzet pump)	stepping test results compared with ten times as much TXA127 or PanCyte ([1]; 50 ug/kg, s.c. Alzet pump, 28 days, vs 500 μg/kg TXA127 or PanCyte)	forelimb placing test performance compared with the other experimental groups [3]	body swing test performance vs vehicle control ([2]; 50 μg/kg s.c. Alzet pump, Day 21)	body swing test performance vs vehicle control ([2]; 50 μg/kg s.c. Alzet pump, Day 28)	body swing test performance level ([2]; 50 μg/kg s.c. Alzet pump)	effectiveness compared with PanCyte [4]
Asp^1-Arg^2-Val^3-Tyr^4-Ile^5-His^6-Pro^7 (SEQ ID NO: 1) (DRVYIHP) [TXA127]	significantly improved the performance of treated rats	did not show significant results until Day 35	showed improvement by Day 21	significant improvement in performance by Day 28	showed improvement by Day 21	significant improvement in performance by Day 28	near-normal (uninjured) level	near-normal (uninjured) level						
Asp^1-Arg^2-Val^3-Ser^4-Ile^5-His^6-Cys^7 (SEQ ID NO:6) (DRVSIHC) [Linear PanCyte, non-cyclized form of PanCyte]	significantly improved the performance of treated rats								substantially equivalent	best performance	showed improvement by Day 21	significant improvement in performance by Day 28	near-normal (uninjured) level	almost equally effective

Reference: patent publication US9511055B2, “Angiotensin in treating brain conditions” (TARIX PHARMACEUTICALS LTD., priority 2012, dated 2016)
